Reference: patent US20210290644A1, “COMPOUNDS AND METHODS FOR TREATING FUNGAL INFECTIONS” (Amplyx Pharmaceuticals, Inc., priority 2018, published 2021)
“And” between values parts separate entries of the source, which are not always exact repeats. Identical values can stand only once.

Test: Study #1 Phase 1: plasma and urine pharmacokinetics of Compound 1 and Compound 1A after IV infusion of Compound 1 (SAD, MAD, loading regimen)
Conditions: both, human, plasma; for Vd: Vz
[1] = 300 mg, Cohort 9: Compound 1 300 mg/3 hr IV QD × 14 days, Day 14, geometric mean
[2] = 600 mg, Cohort 10: Compound 1 600 mg/3 hr IV QD × 14 days, Day 14, geometric mean
[3] = 600 mg, Cohort 12 loading regimen: Compound 1 600 mg/1 hr IV QD, Day 7, geometric mean
[4] = 1000 mg, Cohort 11: Compound 1 1,000 mg/0.5 hr IV, single dose, geometric mean
[5] = 1000 mg, Cohort 11: Compound 1 1,000 mg/1 hr IV, single dose, geometric mean
[6] = 1000 mg, Cohort 11: Compound 1 1,000 mg/2 hr IV, single dose, geometric mean
[7] = 1000 mg, Cohort 11: Compound 1 1,000 mg/3 hr IV, single dose, geometric mean

## Nc1ncccc1-c1cc(Cc2ccc(COc3ccccn3)cc2)no1 [Compound 1A]
300 mg, AUC(0-24), Cohort 9: Compound 1 300 mg/3 hr IV QD × 14 days, Day 14, geometric mean
  AUC(0-t): 118 µg·h/mL
300 mg, Cohort 9: Compound 1 300 mg/3 hr IV QD × 14 days, Day 1, geometric mean
  Cmax: 3690 ng/mL
300 mg, Cohort 9: Compound 1 300 mg/3 hr IV QD × 14 days, Day 7, geometric mean
  Cmax: 6650 ng/mL
[1]
  Cmax: 7520 ng/mL
  Vd: 148 L and 2.22 L/kg
300 mg, Cohort 9: Compound 1 300 mg/3 hr IV QD × 14 days, Day 1, median
  Tmax: 3 h
300 mg, Cohort 9: Compound 1 300 mg/3 hr IV QD × 14 days, Day 7, median
  Tmax: 3 h
300 mg, Cohort 9: Compound 1 300 mg/3 hr IV QD × 14 days, Day 14, median
  Tmax: 3.02 h
350 mg, Cohort 6: Compound 1 350 mg/3 hr IV, single dose, median
  Tmax: 3 h
600 mg, AUC(0-24), Cohort 10: Compound 1 600 mg/3 hr IV QD × 14 days, Day 1, geometric mean
  AUC(0-t): 72.7 µg·h/mL
600 mg, AUC(0-24), Cohort 10: Compound 1 600 mg/3 hr IV QD × 14 days, Day 7, geometric mean
  AUC(0-t): 217 µg·h/mL
600 mg, AUC(0-24), Cohort 10: Compound 1 600 mg/3 hr IV QD × 14 days, Day 14, geometric mean
  AUC(0-t): 245 µg·h/mL
600 mg, AUC(0-24), Cohort 12 loading regimen: Compound 1 600 mg/1 hr IV QD, Day 4, geometric mean
  AUC(0-t): 219 µg·h/mL
600 mg, AUC(0-24), Cohort 12 loading regimen: Compound 1 600 mg/1 hr IV QD, Day 7, geometric mean
  AUC(0-t): 201 µg·h/mL
600 mg, Cohort 10: Compound 1 600 mg/3 hr IV QD × 14 days, Day 1, geometric mean
  Cmax: 7570 ng/mL
600 mg, Cohort 10: Compound 1 600 mg/3 hr IV QD × 14 days, Day 7, geometric mean
  Cmax: 14500 ng/mL
[2]
  Cmax: 15400 ng/mL
  Vd: 175 L and 2.75 L/kg
600 mg, Cohort 12 loading regimen: Compound 1 600 mg/1 hr IV QD, Day 4, geometric mean
  Cmax: 17900 ng/mL
[3]
  Cmax: 17700 ng/mL
  Vd: 162 L and 2.27 L/kg
600 mg, Cohort 10: Compound 1 600 mg/3 hr IV QD × 14 days, Day 1, median
  Tmax: 3 h
600 mg, Cohort 10: Compound 1 600 mg/3 hr IV QD × 14 days, Day 7, median
  Tmax: 3.03 h
600 mg, Cohort 10: Compound 1 600 mg/3 hr IV QD × 14 days, Day 14, median
  Tmax: 3 h
600 mg, Cohort 12 loading regimen: Compound 1 600 mg/1 hr IV QD, Day 4, median
  Tmax: 1 h
600 mg, Cohort 12 loading regimen: Compound 1 600 mg/1 hr IV QD, Day 7, median
  Tmax: 1 h
1000 mg, AUC(0-24), Cohort 11: Compound 1 1,000 mg/0.5 hr IV, single dose, geometric mean
  AUC(0-t): 131 µg·h/mL
1000 mg, AUC(0-24), Cohort 11: Compound 1 1,000 mg/1 hr IV, single dose, geometric mean
  AUC(0-t): 134 µg·h/mL
1000 mg, AUC(0-24), Cohort 11: Compound 1 1,000 mg/2 hr IV, single dose, geometric mean
  AUC(0-t): 130 µg·h/mL
1000 mg, AUC(0-24), Cohort 11: Compound 1 1,000 mg/3 hr IV, single dose, geometric mean
  AUC(0-t): 117 µg·h/mL
1000 mg, AUC(0-24), Cohort 12 loading regimen: Compound 1 1,000 mg/2 hr IV at 0 & 9 hr, Day 1, geometric mean
  AUC(0-t): 211 µg·h/mL
1000 mg, AUC(0-t), Cohort 11: Compound 1 1,000 mg/1 hr IV, single dose, geometric mean
  AUC(0-t): 481 µg·h/mL
1000 mg, AUC(0-t), Cohort 11: Compound 1 1,000 mg/2 hr IV, single dose, geometric mean
  AUC(0-t): 476 µg·h/mL
[4]
  AUC(0-inf): 434 µg·h/mL
  Cmax: 24900 ng/mL
  Vd: 141 L and 19.7 L/kg
[5]
  AUC(0-inf): 536 µg·h/mL
  Cmax: 20100 ng/mL
  Vd: 139 L and 2.11 L/kg
[6]
  AUC(0-inf): 541 µg·h/mL
  Cmax: 15600 ng/mL
  Vd: 153 L and 2.43 L/kg
[7]
  AUC(0-inf): 400 µg·h/mL
  Cmax: 11900 ng/mL
  Vd: 153 L and 2.02 L/kg
1000 mg, Cohort 12 loading regimen: Compound 1 1,000 mg/2 hr IV at 0 & 9 hr, Day 1, geometric mean
  Cmax: 15700 ng/mL
1000 mg, Cohort 11: Compound 1 1,000 mg/0.5 hr IV, single dose, median
  Tmax: 0.52 h
1000 mg, Cohort 11: Compound 1 1,000 mg/1 hr IV, single dose, median
  Tmax: 1.02 h
1000 mg, Cohort 11: Compound 1 1,000 mg/2 hr IV, single dose, median
  Tmax: 2.02 h
1000 mg, Cohort 11: Compound 1 1,000 mg/3 hr IV, single dose, median
  Tmax: 3.02 h
1000 mg, Cohort 12 loading regimen: Compound 1 1,000 mg/2 hr IV at 0 & 9 hr, Day 1, median
  Tmax: 11 h
